One may read the inhibition as the share of the control response that was lost under treatment. For orientation: MIC means the lowest concentration that inhibits growth of the organism.

Series [1] concerns stage 59-60 Xenopus tadpoles. To be noted: 10 μg/ml in water.
Series [2] has as its system chick embryo vitelline capillaries. Kind of series: chick embryo vitelline capillary regression assay. Also on record: key to vitelline capillary regression: +: Vascular reactivity; 0: No vascular reactivity; +/-: Equivocal reactivity. The class given is in vivo. An outline of the steps:
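Compounds applied to 3- to 5-day chick embryos in 0.1 ml of 15% Ficol 400 in PBS. Regression of vitelline capillaries, seen as pinching-off of capillary loops into enclosed sacs, was scored visually after 60 minutes.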

Series [3] relates to PHA-stimulated human lymphocytes. Nature of the series: inhibition of mitogen (PHA)-stimulated growth of human T-cells. The class given is cell-based. To be noted: Homo sapiens, Lymphocyte, read-out: inhibition of PHA-stimulated human lymphocytes (% control). From the text:
Results are tabulated below.

The format of series [4] is physicochemical. From the text:
Compound 1361 was isolated from shark liver preparations in two different ways: first, as a degradation product of compound 1360; and, subsequently,as a minor aminosterol component fractionating with slightly faster retention time than squalamine during preparative C18 RP-HPLC (component of Fraction VI). In early attempts to purify each aminosterol to homogeneity, pooled fractions from C18 RP-HPLC were subjected to silica gel flash chromatography with CH2 Cl2 :CH30 H:NH4 OH 6:3:1, and the aminosterols were assayed on TLC plates. The pools of free base steroids were then re-subjected to C18 RP-HPLC, using an analytical column.

The test system of a further series is P. aerug. Kind of series: antibiotic activity (MIC). The class given is cell-based.
The next series deals with E. Coli. Kind of series: antibiotic activity (MIC). The class given is cell-based. Conditions: Escherichia coli, read-out: MIC, E. Coli.
The next series relates to S. aureus. Nature of the series: antibiotic activity (MIC). The class given is cell-based. Conditions: Staphylococcus aureus.
The subject of a further series is HM. Nature of the series: HM MTT assay. The class given is cell-based. Conditions: Table II; read-out: Minimum Effective Concentration, HM MTT assay. (Tetrazolium assays rely on reduction of a dye to a coloured formazan, in cell work by metabolically active cells.)

Converted amounts (≈) assume the structure as drawn. Where two headings read alike, the source gives them in different places.

Take `CC(COS(=O)(=O)O)C(=O)CC[C@@H](C)[C@H]1CC[C@H]2[C@@H]3[C@H](O)C[C@H]4C[C@@H](NCCCNCCCCN)CC[C@]4(C)[C@H]3CC[C@]12C` (single isomer, unassigned) [Compound 1360]: the “pharmacological response in tadpole” value is “Swelling and lysis of certain erythrocytes occurred, resulting in accumulation of nuclei within certain small vessels of the tail. Subsequent tissue breakdown occurred in areas of tail surrounding these nuclear plugs” in series [1]; “extensive vasocclusion occurred within 60 minutes throughout the tail” in series [1] (listed as compound 1360). Moreover, the vitelline capillary regression in series [2] (1 μg applied, 60 minutes) came out at 0. Besides, in series [2] (within 20 minutes), the “effect on blood color in chick embryo” value is listed as “the blood circulating through the embryonic vessels exhibited a brighter red color”. Moreover, the inhibition at 1 µg/mL in series [3] (1 μg/ml) is 5%. In series [3] (5 μg/ml), the inhibition at 5 µg/mL was 5%. Besides, the inhibition at 10 µg/mL in series [3] (10 μg/ml) came to 5%. For the same compound, the chemical stability result in series [4] is “undergoes a dehydration of the 27 hydroxyl, loss of sulfate, and generation of the corresponding 27-ene”.

As for `COC(=O)CCC(C)[C@H]1CCC2C3C[C@@H](O)[C@H]4C[C@H](NCCN)CC[C@]4(C)C3CC[C@@]21C` (stereo partly drawn), the MIC in the series on P. aerug is 128 µg/mL (≈ 285 µM); in the series with E. Coli, 32 to 44 µg/mL (≈ 71.3 to 98.1 µM).

`CC(C)CCC[C@@H](C)[C@H]1CC[C@H]2[C@@H]3CC[C@H]4C[C@H](NCCCN5CCCCN=C5N)CC[C@]4(C)[C@H]3CC[C@]12C` came in with an MIC in the series on S. aureus of 2 µg/mL (≈ 3.7 µM).

For `COC(=O)CCC(C)[C@H]1CCC2C3CC[C@H]4C[C@H](NCCCNCCCCNCCCN)CC[C@]4(C)C3CC[C@@]21C` (stereo partly drawn) [drawing 108], in the series with HM, the minimal effective concentration came out at 6.8 µg/mL.

The values above are taken from US5795885A, “Method of inhibiting profileration of cells by administering an aminosterol compound” (priority 1995, dated 1998).
